# Assay results from the supplement of paper PMC10307832.
# Tests used:
# Assay in all cases: relative viability (nuclei count vs DMSO), 5 days (fraction); higher = more cells survive
# Zosuquidar + Tozasertib = compound: O[C@@H](COc1cccc2ncccc12)CN1CCN([C@@H]2c3ccccc3[C@@H]3[C@H](c4ccccc42)C3(F)F)CC1 [Zosuquidar] + Cc1cc(Nc2cc(N3CCN(C)CC3)nc(Sc3ccc(NC(=O)C4CC4)cc3)n2)n[nH]1 [Tozasertib] (partner 0.1 µM)
# Method in brief: (§1)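 Lung cancer cell lines in 1536-well plates were dosed by pin tool the day after seeding, either with one drug alone or with a fixed anchor-drug dose plus five library-drug doses (not always all listed) in √10 steps. After 5 days, cells were fixed and their nuclei stained in one step (final 0.05% Triton X-100, 1% formaldehyde, 1 ug/ml Hoechst), then counted on 4× images. Relative viability is the nuclei count in treated wells divided by that in vehicle wells. Values are medians of duplicate plates.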
# Zosuquidar + Lapatinib = compound: O[C@@H](COc1cccc2ncccc12)CN1CCN([C@@H]2c3ccccc3[C@@H]3[C@H](c4ccccc42)C3(F)F)CC1 [Zosuquidar] + CS(=O)(=O)CCNCc1ccc(-c2ccc3ncnc(Nc4ccc(OCc5cccc(F)c5)c(Cl)c4)c3c2)o1 [Lapatinib] (partner 2 µM)
# Method in brief: as §1
# [1] = compound: COc1cc2nccc(Oc3ccc(NC(=O)C4(C(=O)Nc5ccc(F)cc5)CC4)cc3)c2cc1OC [Cabozantinib] + Nc1nc2[nH]cc(CCc3ccc(C(=O)N[C@@H](CCC(=O)O)C(=O)O)cc3)c2c(=O)[nH]1 [Pemetrexed] (partner 0.2 µM)
# Method in brief: as §1
# Zosuquidar + Bortezomib = compound: O[C@@H](COc1cccc2ncccc12)CN1CCN([C@@H]2c3ccccc3[C@@H]3[C@H](c4ccccc42)C3(F)F)CC1 [Zosuquidar] + CC(C)C[C@H](NC(=O)[C@H](Cc1ccccc1)NC(=O)c1cnccn1)B(O)O [Bortezomib] (partner 0.002 µM)
# Method in brief: as §1
Cell Line,relative viability (Zosuquidar + Tozasertib; first compound 0.01 µM),relative viability (Zosuquidar + Tozasertib; first compound 0.03162 µM),relative viability (Zosuquidar + Tozasertib; first compound 0.1 µM),relative viability (Zosuquidar + Tozasertib; first compound 0.3162 µM),relative viability (Zosuquidar + Tozasertib; first compound 1 µM),relative viability (Zosuquidar + Lapatinib; first compound 0.01 µM),relative viability (Zosuquidar + Lapatinib; first compound 0.03162 µM),relative viability (Zosuquidar + Lapatinib; first compound 0.1 µM),relative viability (Zosuquidar + Lapatinib; first compound 0.3162 µM),relative viability (Zosuquidar + Lapatinib; first compound 1 µM),relative viability ([1]; first compound 0.02 µM),relative viability ([1]; first compound 0.06325 µM),relative viability ([1]; first compound 0.2 µM),relative viability ([1]; first compound 0.6325 µM),relative viability ([1]; first compound 2 µM),relative viability (Zosuquidar + Bortezomib; first compound 0.01 µM),relative viability (Zosuquidar + Bortezomib; first compound 0.03162 µM),relative viability (Zosuquidar + Bortezomib; first compound 0.1 µM),relative viability (Zosuquidar + Bortezomib; first compound 0.3162 µM),relative viability (Zosuquidar + Bortezomib; first compound 1 µM)
EMC-BAC-2,0.278,0.33,0.285,0.274,0.261,0.852,0.925,0.816,0.986,0.954,0.47,0.456,0.529,0.456,0.449,1.02,1.07,1.02,1.22,1.09
NCI-H650,0.795,0.748,0.739,0.803,0.791,0.845,0.879,–,1.49,0.881,0.792,1.07,0.964,0.941,0.916,0.858,0.863,–,1.01,0.919
NCI-H2009,0.538,0.518,0.574,0.46,0.436,0.931,0.905,0.891,1.09,0.849,1.08,1.07,1.02,1,1.08,0.98,0.917,0.737,1.16,0.966
NCI-H2405,0.774,0.762,0.724,0.747,0.74,1.17,0.971,1.15,1.24,1.11,0.818,1.13,1.08,1.09,1.02,0.931,0.974,0.861,1.02,0.959
NCI-H322M,0.461,0.54,0.383,0.445,0.519,0.552,0.63,0.417,0.582,0.567,0.614,0.744,0.578,0.628,0.613,1.27,1.27,0.827,1.17,1.12
NCI-H2085,0.852,0.886,0.778,0.835,0.856,0.796,0.754,0.475,0.826,0.778,0.9,0.974,0.737,0.866,0.744,1.11,0.987,0.852,1.1,1.06
RERF-LC-KJ,0.501,0.552,0.505,0.519,0.428,0.786,0.902,0.841,0.943,0.811,0.471,0.463,0.402,0.347,0.463,1.17,1.16,1.17,1.18,0.992
NCI-H1355,0.527,0.542,0.623,0.612,0.519,0.993,1,0.759,1.11,1,1.05,1.12,1.04,1.07,1.06,1.15,1.26,1.1,1.33,1.24
NCI-H1650,0.43,0.426,0.478,0.469,0.371,0.783,0.696,0.684,1.22,0.875,0.441,0.435,0.337,0.355,0.374,0.227,0.226,0.206,0.219,0.222
PC-14,0.551,0.602,0.629,0.519,0.57,0.316,0.284,0.259,0.416,0.288,0.113,0.141,–,0.126,0.129,0.846,0.992,0.782,0.984,0.78
NCI-H1755,0.541,0.634,0.535,0.634,0.564,1,0.946,0.951,1.04,1.08,0.449,0.415,0.436,0.425,0.422,0.923,0.873,0.901,1.12,0.934
NCI-H1651,0.603,0.607,0.782,0.627,0.623,0.866,0.902,0.865,1.02,0.943,0.498,0.732,0.588,0.497,0.544,0.928,0.984,0.882,0.91,0.866
NCI-H661,0.354,0.313,0.353,0.328,0.33,0.6,0.423,0.399,0.639,0.559,0.959,0.941,0.981,0.939,1.07,0.875,0.702,0.628,1.12,0.949
HCC-15,0.257,0.323,0.416,0.223,0.321,0.827,0.861,0.764,0.881,0.976,0.231,0.228,0.226,0.223,0.215,0.925,0.998,0.956,0.995,1.04
PC-3 [JPC-3],0.844,0.835,0.879,0.824,0.897,0.449,0.429,0.401,0.433,0.447,0.971,1.43,–,1.07,1.2,0.849,0.879,0.706,0.765,0.863
HOP-62,0.363,0.312,0.396,0.341,0.308,0.862,1.05,0.951,1.07,1.07,0.271,0.364,0.34,0.336,0.3,0.6,1.01,0.616,0.42,0.906

Cell Line,relative viability (Zosuquidar + Tozasertib; first compound 0.01 µM),relative viability (Zosuquidar + Tozasertib; first compound 0.03162 µM),relative viability (Zosuquidar + Tozasertib; first compound 0.1 µM),relative viability (Zosuquidar + Tozasertib; first compound 0.3162 µM),relative viability (Zosuquidar + Tozasertib; first compound 1 µM),relative viability (Zosuquidar + Lapatinib; first compound 0.01 µM),relative viability (Zosuquidar + Lapatinib; first compound 0.03162 µM),relative viability (Zosuquidar + Lapatinib; first compound 0.1 µM),relative viability (Zosuquidar + Lapatinib; first compound 0.3162 µM),relative viability (Zosuquidar + Lapatinib; first compound 1 µM),relative viability ([1]; first compound 0.02 µM),relative viability ([1]; first compound 0.06325 µM),relative viability ([1]; first compound 0.2 µM),relative viability ([1]; first compound 0.6325 µM),relative viability ([1]; first compound 2 µM),relative viability (Zosuquidar + Bortezomib; first compound 0.01 µM),relative viability (Zosuquidar + Bortezomib; first compound 0.03162 µM),relative viability (Zosuquidar + Bortezomib; first compound 0.1 µM),relative viability (Zosuquidar + Bortezomib; first compound 0.3162 µM),relative viability (Zosuquidar + Bortezomib; first compound 1 µM)
NCI-H460,0.335,0.474,0.671,0.476,0.323,0.927,1,0.983,0.977,1.04,0.0695,0.0609,0.0626,0.0622,0.0696,1.01,1.09,1.14,1.07,1.1
NCI-H838,0.264,0.316,0.273,0.291,0.285,1.04,0.765,0.858,1.18,1.06,0.276,0.263,0.234,0.288,0.244,0.824,0.605,0.749,0.813,0.884
NCI-H1734,0.263,0.254,0.243,0.268,0.263,1.03,1.02,1.1,1.07,1.13,0.396,0.435,0.413,0.445,0.397,0.771,0.959,0.918,0.997,1.06
EKVX,0.394,0.436,0.389,0.369,0.348,0.227,0.254,0.106,0.34,0.214,0.376,0.477,0.352,0.467,0.461,1.05,0.975,0.839,0.984,1.02
NCI-H647,0.26,0.266,0.564,0.228,0.284,1.04,1.13,1.03,1.13,1.14,0.165,0.192,0.162,0.149,0.133,1.01,0.882,1.27,1.1,0.996
LOU-NH91,0.697,0.624,–,0.706,0.71,0.717,0.851,0.701,0.942,0.751,0.424,0.366,0.487,0.371,0.413,0.567,0.52,0.484,0.503,0.507
COR-L23,0.196,0.224,0.188,0.215,0.187,0.953,0.934,0.968,1.15,1.34,0.215,0.197,0.191,0.185,0.193,0.925,0.969,0.893,0.877,1.08
NCI-H1437,0.41,0.408,0.424,0.396,0.381,0.825,0.669,0.747,0.908,0.792,0.307,0.35,0.316,0.307,0.256,0.468,0.442,0.475,0.53,0.463
EPLC-272H,0.192,0.245,0.358,0.261,0.253,0.916,0.97,0.876,1.01,1,0.368,0.37,0.301,0.318,0.282,0.844,0.956,0.998,1.16,0.938
NCI-H1666,0.596,0.62,0.666,0.587,0.592,0.534,0.713,0.875,0.754,0.579,0.9,0.902,0.873,0.899,0.875,1,0.905,0.714,1.15,0.798
HCC-44,0.965,1.13,1.17,1.01,0.889,0.948,1.08,1.05,0.967,1.06,0.659,0.609,0.735,0.701,0.724,0.872,0.949,0.885,0.952,0.864
NCI-H23,0.393,0.629,0.537,0.34,0.362,1.15,1.16,1.38,1.23,1.15,–,0.819,0.471,0.655,0.476,0.956,1.24,1.15,1.3,1.33
SW 1573,0.171,0.147,0.14,0.182,0.157,1.09,0.985,1.08,1.4,1.01,0.905,0.815,0.924,0.951,0.763,0.976,0.987,1.04,1.18,1.14
LU99A,0.215,0.229,0.257,0.254,0.271,0.918,0.954,1.11,1.05,0.982,0.18,0.199,0.216,0.173,0.229,1.09,1.14,1.22,1.34,1.37
SK-LU-1,0.292,0.359,0.417,0.353,0.332,0.905,0.918,1.02,0.79,1.01,1.1,1.1,0.9,0.926,0.9,1.17,1.14,0.962,–,1.41
NCI-H2126,0.815,0.861,–,0.918,0.796,0.75,0.753,0.639,0.755,0.733,0.59,0.666,0.689,0.658,0.704,1.12,1.04,1.01,1.19,1.09
